Experimental data taken from ChEMBL document CHEMBL2016443, “From ApoA1 upregulation to BET family bromodomain inhibition: discovery of I-BET151” (Bioorg Med Chem Lett, 2012).
The source made the active and inactive calls. The rule behind the calls is not given here.

Columns and labels:
PBMC [1] = assay: Inhibition of LPS-stimulated IL-6 production in human PBMC; assay type: functional, cell-based
HepG2 = assay: Upregulation of ApoA1 expression in human HepG2 cells assessed as concentration required to increase 70% of luciferase activity after 18 hrs by luciferase reporter gene assay; assay type: functional
THP-1 = assay: Antiinflammatory activity in human THP1 cells; assay type: functional, cell-based
PBMC [2] = assay: Inhibition of LPS-stimulated TNFalpha production in human PBMC; assay type: functional, cell-based
Cytochrome P450 2C9 = Cytochrome P450 2C9 (Homo sapiens, UniProt P11712); assay: Inhibition of CYP2C9; assay type: ADME
Cytochrome P450 3A4 = Cytochrome P450 3A4 (Homo sapiens, UniProt P08684); assay: Inhibition of CYP3A4; assay type: ADME
Mus musculus [3] = assay: Antiinflammatory activity in LPS-stimulated acute inflammation BALB/c mouse model assessed as inhibition of plasma PAI-1 level at 10 mg/kg, po administered 2 hrs before LPS challenge; assay type: functional
Mus musculus [4] = assay: Antiinflammatory activity in LPS-stimulated acute inflammation BALB/c mouse model assessed as inhibition of plasma IL-6 level at 10 mg/kg, po administered 2 hrs before LPS challenge; assay type: functional
Mus musculus [5] = assay: Antiinflammatory activity in LPS-stimulated acute inflammation BALB/c mouse model assessed as inhibition of plasma MCP-1 level at 10 mg/kg, po administered 2 hrs before LPS challenge; assay type: functional
Mus musculus [6] = assay: Antiinflammatory activity in LPS-stimulated acute inflammation BALB/c mouse model assessed as inhibition of plasma TNF-alpha level at 10 mg/kg, po administered 2 hrs before LPS challenge; assay type: functional
[7] = Clearance in iv dosed CD rat blood after 1 hr; assay type: ADME, organism-based; details: whole blood
Salmonella typhimurium = assay: Mutagenic activity in Salmonella typhimurium by Ames assay; assay type: toxicity, organism-based; details: salmonella enterica subsp. enterica serovar typhimurium
Hepatocyte [8] = assay: Bioactivation in rat hepatocytes assessed as glutathione trapping; assay type: cell-based
Hepatocyte [9] = assay: Bioactivation in rat hepatocytes assessed as compound epoxidation; assay type: cell-based
Hepatocyte [10] = assay: Bioactivation in human hepatocytes assessed as glutathione trapping; assay type: cell-based
[11] = Oral bioavailability in CD rat; assay type: ADME, organism-based; details: in vivo
[12] = Half life in CD rat; assay type: ADME, organism-based; details: CD, in vivo
Rattus norvegicus = organism: Rattus norvegicus; assay: Dose normalized AUC (0 to infinity ) in CD rat; assay type: ADME, organism-based; details: in vivo
[13] = Volume of distribution at steady state in CD rat; assay type: ADME, organism-based; details: in vivo, read-out: Vdss
Hepatocyte [14] = assay: Bioactivation in human hepatocytes assessed as compound epoxidation; assay type: cell-based

Chain of Cytochrome P450 2C9 (P11712 whole entry): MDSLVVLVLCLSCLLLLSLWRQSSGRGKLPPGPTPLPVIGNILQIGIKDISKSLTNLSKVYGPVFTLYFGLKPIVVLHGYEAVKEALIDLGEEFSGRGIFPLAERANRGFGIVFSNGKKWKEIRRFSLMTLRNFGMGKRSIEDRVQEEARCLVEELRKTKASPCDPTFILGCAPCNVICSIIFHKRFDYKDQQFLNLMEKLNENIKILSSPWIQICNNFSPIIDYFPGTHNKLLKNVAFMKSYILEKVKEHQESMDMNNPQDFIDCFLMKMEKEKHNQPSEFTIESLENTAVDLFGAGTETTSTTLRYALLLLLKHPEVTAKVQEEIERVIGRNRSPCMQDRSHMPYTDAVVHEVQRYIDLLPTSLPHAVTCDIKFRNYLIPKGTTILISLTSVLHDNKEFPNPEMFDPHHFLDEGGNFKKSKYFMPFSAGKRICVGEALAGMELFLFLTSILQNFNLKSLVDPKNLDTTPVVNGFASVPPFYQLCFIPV
Chain of Cytochrome P450 3A4 (P08684 whole entry): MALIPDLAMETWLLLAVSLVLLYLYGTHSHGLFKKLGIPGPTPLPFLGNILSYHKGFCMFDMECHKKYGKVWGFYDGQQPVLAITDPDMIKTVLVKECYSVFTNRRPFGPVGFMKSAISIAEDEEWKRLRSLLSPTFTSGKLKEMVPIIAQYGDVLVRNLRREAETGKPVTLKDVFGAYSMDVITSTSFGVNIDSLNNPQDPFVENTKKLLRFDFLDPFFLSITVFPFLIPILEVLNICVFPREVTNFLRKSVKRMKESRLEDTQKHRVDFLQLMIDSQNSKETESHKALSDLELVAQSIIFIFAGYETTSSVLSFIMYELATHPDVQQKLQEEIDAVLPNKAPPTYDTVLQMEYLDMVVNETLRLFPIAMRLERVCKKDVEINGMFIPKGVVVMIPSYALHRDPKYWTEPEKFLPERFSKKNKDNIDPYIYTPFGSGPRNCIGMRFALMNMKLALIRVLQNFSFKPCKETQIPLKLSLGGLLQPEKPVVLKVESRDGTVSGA

IC50 (Cytochrome P450 2C9) | IC50 (Cytochrome P450 3A4) | SMILES | Activity (PBMC [1]) | EC170 (HepG2) | Activity (THP-1) | Activity (PBMC [2]) | further results
– | – | Cc1noc(C)c1-c1ccc2c(Nc3ccccc3F)c(C(N)=O)cnc2c1 | Active | 0.5 µM | Active | Active | –
– | – | Cc1noc(C)c1-c1ccc2c(Nc3ccccc3)c(C(=O)N(C)C)cnc2c1 | Active | 7.08 µM | Active | Active | –
10 µM | 13 µM | Cc1noc(C)c1-c1ccc2c(Nc3ccccc3C(C)(C)C)c(C(=O)O)cnc2c1 | Active | 0.32 µM | Active | Active | –
1.2 µM | 1.9 µM | COc1cc2c(Nc3ccccc3C(C)(C)C)c(C(N)=O)cnc2cc1-c1c(C)noc1C | Active | 0.13 µM | Active | Active | –
– | – | C[C@]12C=CC(=O)C=C1CC[C@@H]1[C@@H]2[C@@H](O)C[C@@]2(C)[C@H]1CC[C@]2(O)C(=O)CO [PREDNISOLONE] | – | – | – | – | inhibition in vivo at 10 mg/kg (Mus musculus [3]): 43%; inhibition in vivo at 10 mg/kg (Mus musculus [4]): 59%; inhibition in vivo at 10 mg/kg (Mus musculus [5]): 49%; inhibition in vivo at 10 mg/kg (Mus musculus [6]): 94%
– | – | Cc1noc(C)c1-c1ccc2c(Nc3ccccc3C#N)c(C(N)=O)cnc2c1 | Active | 1.02 µM | Active | Active | –
– | – | COc1cc2c(NC3CCCCC3)c(C(N)=O)cnc2cc1-c1c(C)noc1C | Active | 0.45 µM | Active | Active | –
9.9 µM | 3.1 µM | COc1cc2c(Nc3ccccc3C(=O)c3ccccn3)c(C(N)=O)cnc2cc1-c1c(C)noc1C | Active | 0.2 µM | Active | Active | –
– | – | COc1cc2c(cc1-c1c(C)noc1C)ncc1[nH]c(=O)n([C@@H](C)c3ccccc3)c12 | Active | 0.47 µM | Active | Active | –
– | – | Cc1noc(C)c1-c1ccc2c(Nc3ccccc3C(C)(C)C)c(C(=O)O)cnc2c1C | Active | 1.05 µM | Active | Active | –
2.2 µM | 1.9 µM | COc1cc2c(Nc3ccccc3CCN3CCOCC3)c(C(N)=O)cnc2cc1-c1c(C)noc1C | Active | 0.09 µM | Active | Active | –
– | – | COc1cc2c(NCc3ccccn3)c(C(N)=O)cnc2cc1-c1c(C)noc1C | Active | 2.57 µM | Active | Active | –
2.4 µM | 2.4 µM | CC[C@H](c1ccccc1)n1c(=O)[nH]c2cnc3cc(-c4c(C)noc4C)c(OC)cc3c21 | Active | 0.03 µM | Active | Active | –
1 µM | 1.5 µM | COc1cc2c(cc1-c1c(C)noc1C)ncc1[nH]c(=O)n([C@H](C)c3ccccc3)c12 | Active | 0.01 µM | Active | Active | –
– | – | Cc1noc(C)c1-c1ccc2c(Nc3ccccc3)c(C(=O)NCc3ccccc3)cnc2c1 | Active | 1.44 µM | Active | Active | –
– | – | Cc1noc(C)c1-c1ccc2c(Nc3ccccc3)ccnc2c1 | Active | 4.27 µM | Active | Active | –
> 33 µM | > 33 µM | Cc1noc(C)c1-c1ccc2c(Nc3ccccc3)c(C(=O)O)cnc2c1 | Active | 1.74 µM | Active | Active | –
0.6 µM | 4.7 µM | COc1cc2c(Nc3ccccc3F)c(C(N)=O)cnc2cc1-c1c(C)noc1C | Active | 0.3 µM | Active | Active | –
– | – | COc1cc2c(cc1-c1c(C)noc1C)ncc1[nH]c(=O)n(-c3ccccc3F)c12 | Active | 0.76 µM | Active | Active | –

IC50 (Cytochrome P450 2C9) | IC50 (Cytochrome P450 3A4) | SMILES | Activity (PBMC [1]) | EC170 (HepG2) | Activity (THP-1) | Activity (PBMC [2]) | further results
2.8 µM | 3.9 µM | COc1cc2c(Nc3cccc4cccnc34)c(C(N)=O)cnc2cc1-c1c(C)noc1C | Active | 0.22 µM | Active | Active | clearance [7]: 50 mL/min/kg; Activity (Salmonella typhimurium): Toxic; Drug metabolism (Hepatocyte [8]): Active; Drug metabolism (Hepatocyte [9]): Active; Drug metabolism (Hepatocyte [10]): Active; bioavailability [11]: 59%; half-life [12]: 1.1 h; AUC/dose (Rattus norvegicus): 12 kg·min/L; Vd [13]: 4 L/kg; Drug metabolism (Hepatocyte [14]): Active
– | – | Cc1noc(C)c1-c1ccc2c(Nc3ccccc3Cl)c(C(N)=O)cnc2c1 | Active | 1 µM | Active | Active | –
– | – | Cc1cc2c(Nc3ccccc3C(C)(C)C)c(C(=O)O)cnc2cc1-c1c(C)noc1C | Active | 1.99 µM | Active | Active | –
8.5 µM | 1.8 µM | COc1cc2c(Nc3ccccc3C(=O)N3CCCCC3)c(C(N)=O)cnc2cc1-c1c(C)noc1C | Active | 0.13 µM | Active | Active | –
1.2 µM | – | COc1cc2c(cc1-c1c(C)noc1C)ncc1[nH]c(=O)n(Cc3ccccc3)c12 | Active | 0.06 µM | Active | Active | –
0.7 µM | 2 µM | Cc1noc(C)c1-c1ccc2c(Nc3ccccc3C(C)(C)C)c(C(N)=O)cnc2c1 | Active | 0.63 µM | Active | Active | –
1.3 µM | 2 µM | COc1cc2c(cc1-c1c(C)noc1C)ncc1[nH]c(=O)n(C(C)c3ccccc3)c12 (racemic) | Active | 0.03 µM | Active | Active | –
– | – | COc1cc2c(Nc3ccccc3C(C)(C)C)c(C(=O)O)cnc2cc1-c1c(C)noc1C | Active | 0.28 µM | Active | Active | –
– | – | Cc1cccc(Nc2c(C(N)=O)cnc3cc(-c4c(C)noc4C)ccc23)c1 | Active | 0.6 µM | Active | Active | –
– | – | COc1cc2c(NCc3ccccc3)c(C(N)=O)cnc2cc1-c1c(C)noc1C | Active | 1.07 µM | Active | Active | –
– | – | Cc1ccccc1Nc1c(C(N)=O)cnc2cc(-c3c(C)noc3C)ccc12 | Active | 0.44 µM | Active | Active | –
0.9 µM | 1.7 µM | COc1cc2c(cc1-c1c(C)noc1C)ncc1[nH]c(=O)n(-c3ccccc3C(C)(C)C)c12 | Active | 0.05 µM | Active | Active | –
5.1 µM | 1.5 µM | COc1cc2c(Nc3ccccc3N3CCOCC3)c(C(N)=O)cnc2cc1-c1c(C)noc1C | Active | 0.09 µM | Active | Active | –
2.1 µM | 17 µM | Cc1noc(C)c1-c1ccc2c(Nc3ccccc3)c(C(N)=O)cnc2c1 | Active | 0.5 µM | Active | Active | –
– | – | COc1ccccc1Nc1c(C(N)=O)cnc2cc(-c3c(C)noc3C)ccc12 | Active | 0.39 µM | Active | Active | –
– | – | Cc1ccc(Nc2c(C(N)=O)cnc3cc(-c4c(C)noc4C)ccc23)cc1 | Active | 1.05 µM | Active | Active | –
– | 12.9 µM | COc1cc2c(cc1-c1c(C)noc1C)ncc1[nH]c(=O)n(Cc3ccccn3)c12 | Active | – | Active | Active | –
– | – | CCNC(=O)C[C@@H]1N=C(c2ccc(Cl)cc2)c2cc(OC)ccc2-n2c(C)nnc21 [MOLIBRESIB] | – | 0.2 µM | – | – | –
2.3 µM | – | COc1cc2c(cc1-c1c(C)noc1C)ncc1[nH]c(=O)n(-c3ccccc3OC(F)(F)F)c12 | Active | 0.09 µM | Active | Active | –
